Legend:
[1] = target: D2 (Homo sapiens, UniProt P14416); test: Off-target primary and secondary screen; assay type: binding; settings: 10 mM sample
[2] = Conversion of Allopole to Allopole-A under various buffer conditions (mass spectroscopy); assay type: physicochemical; settings: RT, 1 h; for Compound detected / Compound detected, % of total / Compound detected, pk area: 100 uM Allopole incubated
Method: This Example illustrates the conversion of Allopole to Allopole-A under various buffer conditions, RT, 1 h (JE), as set forth in Table 4
Samples were prepared by incubating Allopole in the indicated buffer conditions without or with 5 mM GSH for 1 h, at RT.

[3] = target: DOR (Homo sapiens, UniProt P41143); test: Off-target primary and secondary screen; assay type: binding; settings: 10 mM sample
Chain of DOR (P41143 whole entry): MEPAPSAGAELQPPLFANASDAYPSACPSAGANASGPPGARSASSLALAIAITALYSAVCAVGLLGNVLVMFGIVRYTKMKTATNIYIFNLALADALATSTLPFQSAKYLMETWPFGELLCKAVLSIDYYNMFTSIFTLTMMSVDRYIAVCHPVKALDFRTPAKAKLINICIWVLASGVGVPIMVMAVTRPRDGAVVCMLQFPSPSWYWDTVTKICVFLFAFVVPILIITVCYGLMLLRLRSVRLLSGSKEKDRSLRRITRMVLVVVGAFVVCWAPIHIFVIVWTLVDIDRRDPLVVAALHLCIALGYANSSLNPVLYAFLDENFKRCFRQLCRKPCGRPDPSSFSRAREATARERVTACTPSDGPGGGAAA

[4] = target: KOR (Homo sapiens, UniProt P41145); test: Off-target primary and secondary screen; assay type: binding; settings: 10 mM sample
Chain of KOR (P41145 whole entry): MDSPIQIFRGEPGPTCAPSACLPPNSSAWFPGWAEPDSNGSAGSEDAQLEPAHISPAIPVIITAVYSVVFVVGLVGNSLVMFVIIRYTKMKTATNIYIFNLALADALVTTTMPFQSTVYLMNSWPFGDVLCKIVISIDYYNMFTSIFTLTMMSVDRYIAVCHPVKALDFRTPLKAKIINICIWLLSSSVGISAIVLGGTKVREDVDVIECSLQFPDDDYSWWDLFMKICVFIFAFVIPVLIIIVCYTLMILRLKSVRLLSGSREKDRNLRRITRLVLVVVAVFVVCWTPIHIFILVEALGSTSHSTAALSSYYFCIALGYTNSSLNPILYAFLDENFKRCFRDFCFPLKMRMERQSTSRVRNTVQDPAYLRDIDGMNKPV

[5] = system: multiple myeloma-derived L363 cells; test: Colorimetric MTS cell viability assay; assay type: cell-based
Excerpt: • *Data from Park, J. E., et al {Park, 2023 #3387}. **Data from Alverez C. N., et al {Alverez, 2020 #3186}. N. S., Not significant; N. D., Not determined. ^a IC50 values determined from at least three independent experiments except as noted in parentheses. b A colorimetric MTS cell viability assay carried out using multiple myeloma-derived L363 cells.

[6] = target: D1 (Homo sapiens, UniProt P21728); test: Off-target primary and secondary screen; assay type: binding; settings: 10 mM sample
[7] = target: 5-HT7A (Homo sapiens, UniProt P34969); test: Off-target primary and secondary screen; assay type: binding; settings: 10 mM sample
[8] = target: M5 (Homo sapiens, UniProt P08912); test: Off-target primary and secondary screen; assay type: binding; settings: 10 mM sample
Chain of M5 (P08912 whole entry): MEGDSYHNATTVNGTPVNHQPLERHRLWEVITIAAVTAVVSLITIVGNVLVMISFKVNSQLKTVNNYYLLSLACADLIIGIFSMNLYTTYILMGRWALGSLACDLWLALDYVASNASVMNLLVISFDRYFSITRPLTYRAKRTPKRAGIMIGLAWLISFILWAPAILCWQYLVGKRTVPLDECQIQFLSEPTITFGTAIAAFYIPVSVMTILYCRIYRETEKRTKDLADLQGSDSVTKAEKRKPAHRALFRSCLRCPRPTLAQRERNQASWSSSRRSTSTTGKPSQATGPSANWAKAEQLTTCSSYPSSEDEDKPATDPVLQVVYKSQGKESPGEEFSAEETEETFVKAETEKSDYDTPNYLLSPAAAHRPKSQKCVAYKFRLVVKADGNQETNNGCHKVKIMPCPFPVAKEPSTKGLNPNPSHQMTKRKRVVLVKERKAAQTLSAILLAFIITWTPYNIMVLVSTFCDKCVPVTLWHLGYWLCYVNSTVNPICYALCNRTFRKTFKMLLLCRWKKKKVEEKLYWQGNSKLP

[9] = target: 5-HT1D (Homo sapiens, UniProt P28221); test: Off-target primary and secondary screen; assay type: binding; settings: 10 mM sample
[10] = target: Alpha2A (Homo sapiens, UniProt P08913); test: Off-target primary and secondary screen; assay type: binding; settings: 10 mM sample
Chain of Alpha2A (P08913 whole entry): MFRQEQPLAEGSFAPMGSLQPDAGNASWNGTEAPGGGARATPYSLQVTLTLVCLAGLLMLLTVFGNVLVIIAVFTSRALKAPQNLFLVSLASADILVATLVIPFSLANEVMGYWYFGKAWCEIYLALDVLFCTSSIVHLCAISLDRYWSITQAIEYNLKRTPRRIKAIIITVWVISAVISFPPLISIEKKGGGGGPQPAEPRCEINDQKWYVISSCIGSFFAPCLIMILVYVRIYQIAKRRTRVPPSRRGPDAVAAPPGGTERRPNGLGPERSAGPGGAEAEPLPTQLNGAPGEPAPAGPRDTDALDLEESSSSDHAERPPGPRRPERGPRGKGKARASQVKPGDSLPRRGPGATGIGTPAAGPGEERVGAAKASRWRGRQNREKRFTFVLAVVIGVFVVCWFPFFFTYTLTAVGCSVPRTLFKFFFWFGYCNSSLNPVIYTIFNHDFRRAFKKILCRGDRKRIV

[11] = target: D5 (Homo sapiens, UniProt P21918); test: Off-target primary and secondary screen; assay type: binding; settings: 10 mM sample
Chain of D5 (P21918 whole entry): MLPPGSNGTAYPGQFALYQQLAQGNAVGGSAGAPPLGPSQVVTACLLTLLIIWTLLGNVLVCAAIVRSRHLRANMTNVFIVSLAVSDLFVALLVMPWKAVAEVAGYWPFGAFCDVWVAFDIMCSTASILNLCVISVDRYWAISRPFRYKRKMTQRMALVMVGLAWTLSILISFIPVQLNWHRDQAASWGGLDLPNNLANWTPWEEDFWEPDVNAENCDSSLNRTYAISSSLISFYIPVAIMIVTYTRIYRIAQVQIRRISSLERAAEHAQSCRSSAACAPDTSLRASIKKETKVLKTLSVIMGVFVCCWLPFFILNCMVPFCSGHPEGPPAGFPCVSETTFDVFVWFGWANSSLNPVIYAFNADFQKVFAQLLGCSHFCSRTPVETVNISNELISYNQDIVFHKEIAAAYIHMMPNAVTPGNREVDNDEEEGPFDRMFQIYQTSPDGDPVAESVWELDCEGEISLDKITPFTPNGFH

[12] = target: 5-HT3 (Homo sapiens, UniProt P46098); test: Off-target primary and secondary screen; assay type: binding; settings: 10 mM sample
[13] = target: PBR (Homo sapiens, UniProt P30536); test: Off-target primary and secondary screen; assay type: binding; settings: for Primary screen AVE (% inhib) ± SD: 10 mM sample
Chain of PBR (P30536 whole entry, species assumed): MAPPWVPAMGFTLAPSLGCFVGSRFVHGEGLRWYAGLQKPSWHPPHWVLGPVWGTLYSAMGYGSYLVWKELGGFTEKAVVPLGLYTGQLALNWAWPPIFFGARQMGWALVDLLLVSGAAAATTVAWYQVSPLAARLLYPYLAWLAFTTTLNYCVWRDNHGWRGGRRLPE

[14] = target: SERT (Homo sapiens, UniProt P31645); test: Off-target primary and secondary screen; assay type: binding; settings: 10 mM sample
[15] = target: Alpha2B (Homo sapiens, UniProt P18089); test: Off-target primary and secondary screen; assay type: binding; settings: 10 mM sample
[16] = target: H4 (Homo sapiens, UniProt Q9H3N8); test: Off-target primary and secondary screen; assay type: binding; settings: 10 mM sample
Chain of H4 (Q9H3N8 whole entry): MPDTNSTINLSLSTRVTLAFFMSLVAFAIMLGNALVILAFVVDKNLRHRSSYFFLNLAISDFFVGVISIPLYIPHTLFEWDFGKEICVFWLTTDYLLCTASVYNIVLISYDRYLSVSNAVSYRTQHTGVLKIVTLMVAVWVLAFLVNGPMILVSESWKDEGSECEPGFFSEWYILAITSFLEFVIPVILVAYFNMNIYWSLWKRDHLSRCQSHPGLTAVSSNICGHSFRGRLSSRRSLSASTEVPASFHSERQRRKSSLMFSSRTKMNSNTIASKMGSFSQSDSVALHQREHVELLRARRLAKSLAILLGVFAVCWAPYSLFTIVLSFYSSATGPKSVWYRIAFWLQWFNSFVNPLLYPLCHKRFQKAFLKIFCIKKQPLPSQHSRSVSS

[17] = target: MOR (Homo sapiens, UniProt P35372); test: Off-target primary and secondary screen; assay type: binding; settings: 10 mM sample
Chain of MOR (P35372 whole entry): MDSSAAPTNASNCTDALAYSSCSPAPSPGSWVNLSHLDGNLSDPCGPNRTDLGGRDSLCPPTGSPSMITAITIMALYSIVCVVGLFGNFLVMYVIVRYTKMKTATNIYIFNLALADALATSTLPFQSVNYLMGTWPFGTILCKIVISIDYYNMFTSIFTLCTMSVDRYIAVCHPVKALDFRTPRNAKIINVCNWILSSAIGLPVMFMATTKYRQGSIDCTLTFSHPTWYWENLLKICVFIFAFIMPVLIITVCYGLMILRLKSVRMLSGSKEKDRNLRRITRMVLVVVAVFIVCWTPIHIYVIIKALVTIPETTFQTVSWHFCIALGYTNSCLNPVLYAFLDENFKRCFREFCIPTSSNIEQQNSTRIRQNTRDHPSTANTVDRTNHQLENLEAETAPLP

[18] = target: T1, 5-HT2C (Homo sapiens, UniProt P28335); test: Off-target primary and secondary screen; assay type: binding; settings: for Primary screen AVE (% inhib) ± SD: 10 mM sample
T1 sequence (P28335 33-458): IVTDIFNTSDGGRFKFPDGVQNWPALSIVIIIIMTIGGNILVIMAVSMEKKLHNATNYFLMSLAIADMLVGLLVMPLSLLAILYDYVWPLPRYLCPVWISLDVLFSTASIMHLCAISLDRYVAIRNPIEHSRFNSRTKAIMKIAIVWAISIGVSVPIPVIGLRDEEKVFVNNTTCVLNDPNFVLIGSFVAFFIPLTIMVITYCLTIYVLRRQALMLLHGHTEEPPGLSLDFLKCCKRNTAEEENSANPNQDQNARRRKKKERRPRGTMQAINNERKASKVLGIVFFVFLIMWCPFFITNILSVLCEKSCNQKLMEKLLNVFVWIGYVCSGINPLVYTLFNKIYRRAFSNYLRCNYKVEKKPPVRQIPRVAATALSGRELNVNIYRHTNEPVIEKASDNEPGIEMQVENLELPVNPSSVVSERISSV

[19] = target: T2, full-length Plk1 / biotinylated PBIP1 phospho-T78 peptide interaction (Homo sapiens, UniProt P53350); test: ELISA-based PBD1-binding inhibition assay; settings: at least three independent experiments; read-out: ELISA (IC50) Mean ± SEM
T2 construct: HA; EGFP; expressed in transfected cells; host or cells: HEK293A cells infected with adenovirus; total lysates

[20] = target: M3 (Homo sapiens, UniProt P20309); test: Off-target primary and secondary screen; assay type: binding; settings: 10 mM sample
Chain of M3 (P20309 whole entry): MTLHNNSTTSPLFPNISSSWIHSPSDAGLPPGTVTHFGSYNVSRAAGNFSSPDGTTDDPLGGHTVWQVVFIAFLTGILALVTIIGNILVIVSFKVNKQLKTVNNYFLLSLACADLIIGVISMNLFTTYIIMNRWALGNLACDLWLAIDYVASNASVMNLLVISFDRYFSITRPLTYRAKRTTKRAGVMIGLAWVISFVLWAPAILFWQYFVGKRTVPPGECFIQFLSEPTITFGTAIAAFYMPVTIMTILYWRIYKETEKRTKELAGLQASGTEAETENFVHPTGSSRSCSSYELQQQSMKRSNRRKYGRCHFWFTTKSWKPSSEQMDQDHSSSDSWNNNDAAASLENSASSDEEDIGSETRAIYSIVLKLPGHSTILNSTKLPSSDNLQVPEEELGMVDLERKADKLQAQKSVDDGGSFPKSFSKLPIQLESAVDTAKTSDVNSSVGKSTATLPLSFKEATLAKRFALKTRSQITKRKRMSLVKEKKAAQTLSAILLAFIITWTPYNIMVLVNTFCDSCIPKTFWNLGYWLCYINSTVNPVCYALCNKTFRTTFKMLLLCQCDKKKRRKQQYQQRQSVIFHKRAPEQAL

[21] = target: H2 (Homo sapiens, UniProt P25021); test: Off-target primary and secondary screen; assay type: binding; settings: 10 mM sample
[22] = target: Sigma 1 (Homo sapiens, UniProt Q99720); test: Off-target primary and secondary screen; assay type: binding; settings: 10 mM sample
Chain of Sigma 1 (Q99720 whole entry): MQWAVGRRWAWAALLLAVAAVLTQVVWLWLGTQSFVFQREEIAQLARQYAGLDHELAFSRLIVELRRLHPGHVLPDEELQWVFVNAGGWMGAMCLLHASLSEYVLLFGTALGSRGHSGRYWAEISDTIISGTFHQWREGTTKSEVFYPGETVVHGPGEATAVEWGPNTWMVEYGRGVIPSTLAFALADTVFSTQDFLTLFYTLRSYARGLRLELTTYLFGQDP

[23] = target: 5-HT1A (Homo sapiens, UniProt P08908); test: Off-target primary and secondary screen; assay type: binding; settings: 10 mM sample
[24] = target: NET (Homo sapiens, UniProt P23975); test: Off-target primary and secondary screen; assay type: binding; settings: 10 mM sample
[25] = target: Alpha2C (Homo sapiens, UniProt P18825); test: Off-target primary and secondary screen; assay type: binding; settings: 10 mM sample
Chain of Alpha2C (P18825 whole entry): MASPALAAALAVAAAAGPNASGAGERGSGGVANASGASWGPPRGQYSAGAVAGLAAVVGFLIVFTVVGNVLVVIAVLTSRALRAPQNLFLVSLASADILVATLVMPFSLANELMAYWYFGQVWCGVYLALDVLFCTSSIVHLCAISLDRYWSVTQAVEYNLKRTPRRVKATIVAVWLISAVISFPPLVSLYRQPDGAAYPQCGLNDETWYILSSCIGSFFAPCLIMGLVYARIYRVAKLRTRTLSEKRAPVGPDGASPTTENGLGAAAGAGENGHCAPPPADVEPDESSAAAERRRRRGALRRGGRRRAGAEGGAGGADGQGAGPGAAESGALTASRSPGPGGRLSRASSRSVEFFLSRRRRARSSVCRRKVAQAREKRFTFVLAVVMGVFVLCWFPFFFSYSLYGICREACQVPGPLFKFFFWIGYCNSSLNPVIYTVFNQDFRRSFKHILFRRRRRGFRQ

[26] = target: BZP Rat brain site; test: Off-target primary and secondary screen; assay type: binding; settings: for Primary screen AVE (% inhib) ± SD: 10 mM sample
[27] = target: D3 (Homo sapiens, UniProt P35462); test: Off-target primary and secondary screen; assay type: binding; settings: 10 mM sample
[28] = buffer 2 (1x PBS pH = 7.4), no GSH
[29] = buffer 3 (20 mM HEPES pH = 7.0), no GSH

Chain of D2 (P14416 whole entry): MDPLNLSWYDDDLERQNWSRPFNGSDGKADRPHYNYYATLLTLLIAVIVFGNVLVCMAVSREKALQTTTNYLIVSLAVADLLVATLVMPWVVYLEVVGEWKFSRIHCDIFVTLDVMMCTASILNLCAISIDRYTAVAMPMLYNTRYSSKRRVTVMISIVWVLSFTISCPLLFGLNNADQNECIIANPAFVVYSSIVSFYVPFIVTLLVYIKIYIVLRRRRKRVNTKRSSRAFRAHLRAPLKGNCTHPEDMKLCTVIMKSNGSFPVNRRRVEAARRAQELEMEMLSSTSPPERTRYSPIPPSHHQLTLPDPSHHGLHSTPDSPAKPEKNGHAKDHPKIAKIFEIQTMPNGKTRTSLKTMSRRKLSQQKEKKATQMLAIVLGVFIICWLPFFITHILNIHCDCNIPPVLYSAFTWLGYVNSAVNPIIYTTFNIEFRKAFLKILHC

Compound: O=c1c2sc(Cl)cc2n2c(=S)[nH]nc2n1CC1CC1 [Compound 19, 7-Chloro-4-(cyclopropylmethyl)-1-thioxo-2,4-dihydrothieno[2,3-e][1,2,4]triazolo[4,3-a]pyrimidin-5 (1H)-one]
- Primary screen AVE (% inhib) ± SD [1]: -27.4 ± 13.1 % inhib
- Compound detected ([2]; buffer 1 + 5 mM GSH): 95.4 µmol/L
- Compound detected, % of total ([2]; buffer 1 + 5 mM GSH): 95.4 % of total
- Compound detected, pk area ([2]; buffer 1 + 5 mM GSH): 1.38E+09
- Compound detected [2, 28]: 0.8 µmol/L
- Compound detected, % of total [2, 28]: 0.8 % of total
- Compound detected, pk area [2, 28]: 4.90E+06
- Compound detected ([2]; buffer 2 + 5 mM GSH): 77.9 µmol/L
- Compound detected, % of total ([2]; buffer 2 + 5 mM GSH): 77.9 % of total
- Compound detected, pk area ([2]; buffer 2 + 5 mM GSH): 5.81E+08
- Compound detected [2, 29]: 1.9 µmol/L
- Compound detected, % of total [2, 29]: 1.9 % of total
- Compound detected, pk area [2, 29]: 1.56E+06
- Compound detected ([2]; buffer 3 + 5 mM GSN): 66.9 µmol/L
- Compound detected, % of total ([2]; buffer 3 + 5 mM GSN): 66.9 % of total
- Compound detected, pk area ([2]; buffer 3 + 5 mM GSN): 1.89E+08
- Compound detected ([2]; buffer 3 [sic], no GSH): 1.3 µmol/L
- Compound detected, % of total ([2]; buffer 3 [sic], no GSH): 1.3 % of total
- Compound detected, pk area ([2]; buffer 3 [sic], no GSH): 9.61E+08
- Primary screen AVE (% inhib) ± SD [3]: -13.5 ± 6.8 % inhib
- Primary screen AVE (% inhib) ± SD [4]: -0.3 ± 8.7 % inhib
- Cell efficacy (GI50) Mean ± SD ([5]; N.S. = Not significant): N.S.
- Primary screen AVE (% inhib) ± SD [6]: -17.2 ± 25.0 % inhib
- Primary screen AVE (% inhib) ± SD [7]: -88.1 ± 20.8 % inhib
- Primary screen AVE (% inhib) ± SD [8]: 130.2 ± 3.0 % inhib
- Primary screen AVE (% inhib) ± SD [9]: 22.5 ± 25.6 % inhib
- Primary screen AVE (% inhib) ± SD [10]: -6.3 ± 7.9 % inhib
- Primary screen AVE (% inhib) ± SD [11]: 28.7 ± 10.7 % inhib
- Primary screen AVE (% inhib) ± SD [12]: -3.8 ± 3.1 % inhib
- Ki [13]: > 10 µM
- Primary screen AVE (% inhib) ± SD [13]: 5.3 ± 8.3 % inhib
- Primary screen AVE (% inhib) ± SD [14]: -28.9 ± 28.7 % inhib
- Primary screen AVE (% inhib) ± SD [15]: -6.4 ± 7.1 % inhib
- Primary screen AVE (% inhib) ± SD [16]: -4.5 ± 11.4 % inhib
- Primary screen AVE (% inhib) ± SD [17]: 30.8 ± 47.5 % inhib
- Primary screen AVE (% inhib) ± SD [18]: -18.3 ± 22.0 % inhib
- IC50 [19]: 1.4 ± 0.03 µM
- Primary screen AVE (% inhib) ± SD [20]: 7.5 ± 45.6 % inhib
- Primary screen AVE (% inhib) ± SD [21]: -27.4 ± 17.1 % inhib
- Primary screen AVE (% inhib) ± SD [22]: 2.0 ± 21.4 % inhib
- Primary screen AVE (% inhib) ± SD [23]: -20.0 ± 27.4 % inhib
- Primary screen AVE (% inhib) ± SD [24]: -39.3 ± 20.6 % inhib
- Primary screen AVE (% inhib) ± SD [25]: 10.6 ± 4.2 % inhib
- Ki [26]: > 10 µM
- Primary screen AVE (% inhib) ± SD [26]: 2.3 ± 21.8 % inhib
- Primary screen AVE (% inhib) ± SD [27]: -7.0 ± 21.7 % inhib

Compound: Cn1cnc([N+](=O)[O-])c1Sc1nnc2n(CC3CC3)c(=O)c3sc(Cl)cc3n12 [Compound 20, 7-Chloro-4-(cyclopropylmethyl)-1-((1-methyl-4-nitro-1H-imidazol-5-yl)thio) thieno[2,3-e][1,2,4]triazolo[4,3-a]pyrimidin-5 (4H)-one]
- Primary screen AVE (% inhib) ± SD [1]: 3.6 ± 6.6 % inhib
- Compound detected ([2]; buffer 1 + 5 mM GSH): 0.1 µmol/L
- Compound detected, % of total ([2]; buffer 1 + 5 mM GSH): 0.1 % of total
- Compound detected, pk area ([2]; buffer 1 + 5 mM GSH): 8.76E+08
- Compound detected [2, 28]: 97.6 µmol/L
- Compound detected, % of total [2, 28]: 97.6 % of total
- Compound detected, pk area [2, 28]: 6.28E+08
- Compound detected ([2]; buffer 2 + 5 mM GSH): 0.0 µmol/L
- Compound detected, % of total ([2]; buffer 2 + 5 mM GSH): 0.0 % of total
- Compound detected, pk area ([2]; buffer 2 + 5 mM GSH): 2.41E+03
- Compound detected [2, 29]: 93.1 µmol/L
- Compound detected, % of total [2, 29]: 93.1 % of total
- Compound detected ([2]; buffer 3 + 5 mM GSN): 0.0 µmol/L
- Compound detected, % of total ([2]; buffer 3 + 5 mM GSN): 0.0 % of total
- Compound detected, pk area ([2]; buffer 3 + 5 mM GSN): 93500
- Compound detected ([2]; buffer 3 [sic], no GSH): 97.9 µmol/L
- Compound detected, % of total ([2]; buffer 3 [sic], no GSH): 97.9 % of total
- Compound detected, pk area ([2]; buffer 3 [sic], no GSH): 7.45E+08
- stability in buffer ([2]; in the absence of GSH): remains stable
- conversion of the prodrug to the active Allopole-A form ([2]; with 5 mM GSH): rapid conversion
- Primary screen AVE (% inhib) ± SD [3]: -1.0 ± 4.8 % inhib
- Primary screen AVE (% inhib) ± SD [4]: 3.7 ± 4.1 % inhib
- GI50 ([5]; Homo sapiens, L-363, N.S. = Not significant, read-out: Cell efficacy (GI50) Mean ± SD): 4.09 ± 0.14 µM
- Primary screen AVE (% inhib) ± SD [6]: 21.5 ± 6.8 % inhib
- Primary screen AVE (% inhib) ± SD [7]: 14.9 ± 9.9 % inhib
- Primary screen AVE (% inhib) ± SD [8]: 95.0 ± 7.4 % inhib
- Primary screen AVE (% inhib) ± SD [9]: 32.8 ± 27.1 % inhib
- Primary screen AVE (% inhib) ± SD [10]: 9.4 ± 4.6 % inhib
- Primary screen AVE (% inhib) ± SD [11]: 20.9 ± 9.5 % inhib
- Primary screen AVE (% inhib) ± SD [12]: -0.8 ± 4.6 % inhib
- Ki [13]: > 10 µM
- Primary screen AVE (% inhib) ± SD [13]: -2.1 ± 5.3 % inhib
- Primary screen AVE (% inhib) ± SD [14]: -56.0 ± 13.9 % inhib
- Primary screen AVE (% inhib) ± SD [15]: 8.3 ± 16.4 % inhib
- Primary screen AVE (% inhib) ± SD [16]: 8.2 ± 3.1 % inhib
- Primary screen AVE (% inhib) ± SD [17]: 40.6 ± 51.0 % inhib
- Ki [18]: 1.3 µM
- Primary screen AVE (% inhib) ± SD [18]: 59.5 ± 3.0 % inhib
- IC50 [19]: > 25 µM
- Primary screen AVE (% inhib) ± SD [20]: 48.3 ± 21.9 % inhib
- Primary screen AVE (% inhib) ± SD [21]: -16.4 ± 21.5 % inhib
- Primary screen AVE (% inhib) ± SD [22]: 41.8 ± 11.9 % inhib
- Primary screen AVE (% inhib) ± SD [23]: -12.8 ± 19.7 % inhib
- Primary screen AVE (% inhib) ± SD [24]: -56.8 ± 10.5 % inhib
- Primary screen AVE (% inhib) ± SD [25]: 6.4 ± 7.5 % inhib
- Ki [26]: > 10 µM
- Primary screen AVE (% inhib) ± SD [26]: 9.5 ± 7.6 % inhib
- Primary screen AVE (% inhib) ± SD [27]: 12.8 ± 12.8 % inhib
